In patent US6472348B1, “Pyridone derivatives and herbicides” (Kumiai Chemical Industry Co., Ltd., priority 1996, dated 2002):

What was measured:
Type in all cases: in vivo
pale smartweed (Po) [1] = assay: Test Example 3: herbicidal effects by upland field foliage treatment; set-up: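 grade of growth control; 5 = at least 90%; 4 = 70 to 90%; 3 = 50 to 70%; 2 = 30 to 50%; 1 = 10 to 30%; 0 = under 10%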; conditions: 100 g active ingredient per 10 ares, evaluated 14th day after treatment
Summary of the method: (§1)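 Two-week-old greenhouse seedlings, raised in sand-filled pots (120 cm^2) with seed covered by soil, receive a foliar application. Effects are then evaluated by standard grades 14 days later, plants remaining in the greenhouse meanwhile.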

[2] = tested on: common lambsquarters (Ch); assay: as above; set-up: scale not given here; conditions: 100 g active ingredient per 10 ares, evaluated 14th day after treatment
Summary of the method: as §1

slender amaranth (Am) [3] = assay: as above; set-up: scale not given here; conditions: 100 g active ingredient per 10 ares, evaluated 14th day after treatment
Summary of the method: as §1

rice flatsedge (Ci) [4] = assay: as above; set-up: scale not given here; conditions: 100 g active ingredient per 10 ares, evaluated 14th day after treatment
Summary of the method: as §1

barnyardgrass (Ec) [5] = assay: as above; set-up: scale not given here; conditions: 100 g active ingredient per 10 ares, evaluated 14th day after treatment
Summary of the method: as §1

Diaitaria ciliaris (Di) = assay: as above; set-up: scale not given here; conditions: 100 g active ingredient per 10 ares, evaluated 14th day after treatment
Summary of the method: as §1

cotton (Go) = assay: Test Example 4: crop plant selectivity by upland field soil treatment (cotton), phytotoxicity; set-up: scale not given here; conditions: dose 6.3 g ai/10 a, evaluated 21st day after application
Summary of the method: (§2)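 Cotton and weeds (incl. China jute, pale smartweed, slender amaranth) sown in sand-filled pots and covered with soil, then soil-treated. Grown in greenhouse; herbicidal effect and cotton phytotoxicity scored on day 21 after application against a rating standard.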

pale smartweed (Po) [6] = assay: Test Example 2: herbicidal effects by upland field soil treatment; conditions: 100 g of the active ingredient per 10 ares, evaluated on the 21st day after application;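 also: grade of growth control; 5 = at least 90%; 4 = 70 to 90%; 3 = 50 to 70%; 2 = 30 to 50%; 1 = 10 to 30%; 0 = under 10%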
From the text: (§3) (Test on Herbicidal Effects by Upland Field Soil Treatment)

[7] = tested on: common lambsquarters (Ch); assay: as above; conditions: 100 g of the active ingredient per 10 ares, evaluated on the 21st day after application
From the text: as §3

Digitaria ciliaris (Di) = assay: as above; conditions: 100 g of the active ingredient per 10 ares, evaluated on the 21st day after application;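 also: grade of growth control; 5 = at least 90%; 4 = 70 to 90%; 3 = 50 to 70%; 2 = 30 to 50%; 1 = 10 to 30%; 0 = under 10%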
From the text: as §3

slender amaranth (Am) [8] = assay: as above; conditions: 100 g of the active ingredient per 10 ares, evaluated on the 21st day after application
From the text: as §3

rice flatsedge (Ci) [9] = assay: as above; conditions: 100 g of the active ingredient per 10 ares, evaluated on the 21st day after application
From the text: as §3

barnyardgrass (Ec) [10] = assay: as above; conditions: 100 g of the active ingredient per 10 ares, evaluated on the 21st day after application
From the text: as §3

corn (Ze) = assay: Test Example 7: crop plant selectivity by upland field soil treatment (corn), phytotoxicity; set-up: scale not given here; conditions: dose 6.3 g ai/10a, 21st day after application
Description: (§4) (Test on Crop Plant Selectivity by Upland Field Soil Treatment)
(§5) In a plastic pot (surface area: 600 cm^2) filled with sand, corn (Ze), green foxtail (Se), pale smartweed (Po), slender amaranth (Am), common lambsquarters (Ch) and China jute (Ab) were sown and covered with soil. […] The plants were then cultured in a green house, and the evaluation of the herbicidal effects and phytotoxicity was conducted on the 21st day after the application in accordance with the standards as identified in Table 47.

pale smartweed (Po) [11] = assay: Test Example 5: crop plant selectivity by upland field soil treatment (wheat), herbicidal effects; set-up: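 grade of growth control; 5 = at least 90%; 4 = 70 to 90%; 3 = 50 to 70%; 2 = 30 to 50%; 1 = 10 to 30%; 0 = under 10%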; conditions: dose 6.3 g ai/10a, 21st day after application
Summary of the method: (§6)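 Seeds sown in pots of sand and covered with soil. Soil treatment applied. Plants cultured in a greenhouse. Effects rated by standard scale after 21 days.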

[12] = tested on: common lambsquarters (Ch); assay: as above; set-up: scale not given here; conditions: dose 6.3 g ai/10a, 21st day after application
Summary of the method: as §6

China jute (Ab) [13] = assay: as above; set-up: scale not given here; conditions: dose 6.3 g ai/10a, 21st day after application
Summary of the method: as §6

slender amaranth (Am) [14] = assay: as above; set-up: scale not given here; conditions: dose 6.3 g ai/10a, 21st day after application
Summary of the method: as §6

green foxtail (Se) [15] = assay: as above; set-up: scale not given here; conditions: dose 6.3 g ai/10a, 21st day after application
Summary of the method: as §6

pale smartweed (Po) [16] = assay: Test Example 7: crop plant selectivity by upland field soil treatment (corn), herbicidal effects; set-up: scale not given here; conditions: dose 6.3 g ai/10a, 21st day after application
Description: as §4, §5

[17] = tested on: common lambsquarters (Ch); assay: as above; set-up: scale not given here; conditions: dose 6.3 g ai/10a, 21st day after application
Description: as §4, §5

China jute (Ab) [18] = assay: as above; set-up: scale not given here; conditions: dose 6.3 g ai/10a, 21st day after application
Description: as §4, §5

slender amaranth (Am) [19] = assay: as above; set-up: scale not given here; conditions: dose 6.3 g ai/10a, 21st day after application
Description: as §4, §5

green foxtail (Se) [20] = assay: as above; set-up: scale not given here; conditions: dose 6.3 g ai/10a, 21st day after application
Description: as §4, §5

barnyardgrass (Ec) [21] = assay: Test Example 1: herbicidal effects by paddy field soil treatment; conditions: 100 g of the active ingredient per 10 ares, 21st day after the application, index 0-5 of Table 47;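 also: grade of growth control; 5 = at least 90%; 4 = 70 to 90%; 3 = 50 to 70%; 2 = 30 to 50%; 1 = 10 to 30%; 0 = under 10%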
Summary of the method: (§7)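 Flooded paddy-soil pots (3 cm water) sown after puddling/leveling; treatment 100 g a.i./10 ares; greenhouse culture; herbicidal effect rated visually on a scoring scale at 21 d post-application.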

monochoria (Mo) = assay: as above; conditions: 100 g of the active ingredient per 10 ares, 21st day after the application, index 0-5 of Table 47;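 also: grade of growth control; 5 = at least 90%; 4 = 70 to 90%; 3 = 50 to 70%; 2 = 30 to 50%; 1 = 10 to 30%; 0 = under 10%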
Summary of the method: as §7

bulrush (Sc) = assay: as above; conditions: 100 g of the active ingredient per 10 ares, 21st day after the application, index 0-5 of Table 47
Summary of the method: as §7

pale smartweed (Po) [22] = assay: Test Example 4: crop plant selectivity by upland field soil treatment (cotton), herbicidal effects; set-up: scale not given here; conditions: dose 6.3 g ai/10 a, evaluated 21st day after application
Summary of the method: as §2

[23] = tested on: common lambsquarters (Ch); assay: as above; set-up: scale not given here; conditions: dose 6.3 g ai/10 a, evaluated 21st day after application
Summary of the method: as §2

China jute (Ab) [24] = assay: as above; set-up: scale not given here; conditions: dose 6.3 g ai/10 a, evaluated 21st day after application
Summary of the method: as §2

slender amaranth (Am) [25] = assay: as above; set-up: scale not given here; conditions: dose 6.3 g ai/10 a, evaluated 21st day after application
Summary of the method: as §2

green foxtail (Se) [26] = assay: as above; set-up: scale not given here; conditions: dose 6.3 g ai/10 a, evaluated 21st day after application
Summary of the method: as §2

wheat (Tr) = assay: Test Example 5: crop plant selectivity by upland field soil treatment (wheat), phytotoxicity; set-up: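 grade of crop injury; 5 = at least 90%; 4 = 70 to 90%; 3 = 50 to 70%; 2 = 30 to 50%; 1 = 10 to 30%; 0 = under 10%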; conditions: dose 6.3 g ai/10a, 21st day after application
Summary of the method: as §6

pale smartweed (Po) [27] = assay: Test Example 6: crop plant selectivity by upland field soil treatment (soybean), herbicidal effects; set-up: scale not given here; conditions: dose 6.3 g ai/10a, 21st day after application
Summary of the method: (§8)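 Greenhouse pot test with soil-applied compound after sowing soybean and weeds in sand; effects graded on day 21 after application.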

[28] = tested on: common lambsquarters (Ch); assay: as above; set-up: scale not given here; conditions: dose 6.3 g ai/10a, 21st day after application
Summary of the method: as §8

China jute (Ab) [29] = assay: as above; set-up: scale not given here; conditions: dose 6.3 g ai/10a, 21st day after application
Summary of the method: as §8

slender amaranth (Am) [30] = assay: as above; set-up: scale not given here; conditions: dose 6.3 g ai/10a, 21st day after application
Summary of the method: as §8

green foxtail (Se) [31] = assay: as above; set-up: scale not given here; conditions: dose 6.3 g ai/10a, 21st day after application
Summary of the method: as §8

soybean (Gl) = assay: Test Example 6: crop plant selectivity by upland field soil treatment (soybean), phytotoxicity; set-up: scale not given here; conditions: dose 6.3 g ai/10a, 21st day after application
Summary of the method: as §8

| SMILES | Herbicidal effects Po (pale smartweed (Po) [1]) | Herbicidal effects Ch [2] | Herbicidal effects Am (slender amaranth (Am) [3]) | Herbicidal effects Ci (rice flatsedge (Ci) [4]) | Herbicidal effects Ec (barnyardgrass (Ec) [5]) | Herbicidal effects Di (Diaitaria ciliaris (Di)) | Phytotoxicity Go (cotton (Go)) | Herbicidal effects Po (pale smartweed (Po) [6]) | Herbicidal effects Ch [7] | Herbicidal effects Di (Digitaria ciliaris (Di)) | Herbicidal effects Am (slender amaranth (Am) [8]) | Herbicidal effects Ci (rice flatsedge (Ci) [9]) | Herbicidal effects Ec (barnyardgrass (Ec) [10]) | Phytotoxicity Ze (corn (Ze)) | Herbicidal effects Po (pale smartweed (Po) [11]) | Herbicidal effects Ch [12] | Herbicidal effects Ab (China jute (Ab) [13]) | Herbicidal effects Am (slender amaranth (Am) [14]) | Herbicidal effects Se (green foxtail (Se) [15]) | Herbicidal effects Po (pale smartweed (Po) [16]) | further results |
| --- | --- | --- | --- | --- | --- | --- | --- | --- | --- | --- | --- | --- | --- | --- | --- | --- | --- | --- | --- | --- | --- |
| C#CCOc1cc(Cl)cc(F)c1-c1ccc(C(F)(F)F)n(C)c1=O [1′-4] | 5 | 5 | 5 | 5 | 5 | 5 | 0 | 5 | 5 | 5 | 5 | 5 | 5 | 1 | 5 | 5 | 5 | 5 | 5 | 5 | Herbicidal effects Ch [17]: 5; Herbicidal effects Ab (China jute (Ab) [18]): 5; Herbicidal effects Am (slender amaranth (Am) [19]): 5; Herbicidal effects Se (green foxtail (Se) [20]): 5; Herbicidal effects Ec (barnyardgrass (Ec) [21]): 5; Herbicidal effects Mo (monochoria (Mo)): 5; Herbicidal effects Sc (bulrush (Sc)): 5; Herbicidal effects Po (pale smartweed (Po) [22]): 5; Herbicidal effects Ch [23]: 5; Herbicidal effects Ab (China jute (Ab) [24]): 5; Herbicidal effects Am (slender amaranth (Am) [25]): 5; Herbicidal effects Se (green foxtail (Se) [26]): 5; Phytotoxicity Tr (wheat (Tr)): 1; Herbicidal effects Po (pale smartweed (Po) [27]): 5; Herbicidal effects Ch [28]: 5; Herbicidal effects Ab (China jute (Ab) [29]): 5; Herbicidal effects Am (slender amaranth (Am) [30]): 5; Herbicidal effects Se (green foxtail (Se) [31]): 5; Phytotoxicity Gl (soybean (Gl)): 1 |
| CCCON=Cc1cc(-c2ccc(C(F)(F)F)n(C)c2=O)c(F)cc1Cl [Compound 1-188] | 5 | 5 | 5 | 5 | 5 | 5 | 0 | 5 | 5 | 5 | 5 | 5 | 5 | 0 | 5 | 5 | 5 | 5 | 5 | 5 | Herbicidal effects Ch [17]: 5; Herbicidal effects Ab (China jute (Ab) [18]): 5; Herbicidal effects Am (slender amaranth (Am) [19]): 5; Herbicidal effects Se (green foxtail (Se) [20]): 5; Herbicidal effects Ec (barnyardgrass (Ec) [21]): 5; Herbicidal effects Mo (monochoria (Mo)): 5; Herbicidal effects Sc (bulrush (Sc)): 5; Herbicidal effects Po (pale smartweed (Po) [22]): 5; Herbicidal effects Ch [23]: 5; Herbicidal effects Ab (China jute (Ab) [24]): 5; Herbicidal effects Am (slender amaranth (Am) [25]): 5; Herbicidal effects Se (green foxtail (Se) [26]): 5; Phytotoxicity Tr (wheat (Tr)): 1; Herbicidal effects Po (pale smartweed (Po) [27]): 5; Herbicidal effects Ch [28]: 5; Herbicidal effects Ab (China jute (Ab) [29]): 5; Herbicidal effects Am (slender amaranth (Am) [30]): 5; Herbicidal effects Se (green foxtail (Se) [31]): 5; Phytotoxicity Gl (soybean (Gl)): 1 |
